Results from patent US20120010264A1, “NOVEL MEDICAMENT FOR TREATING COGNITIVE IMPAIRMENT” (Dainippon Sumitomo Pharma Co., Ltd., priority 2009, published 2012).
Like-named read-outs stand apart in the source and are kept apart here.

Legend:
[1] = Brain delivery property: brain tissue and plasma concentration after oral administration; format: in vivo; conditions: female, 10 mg/kg oral, one portion, C57BL/6J mouse; for Kp: brain and plasma, read-out: Kp value (brain/plasma AUC0-6 hr ratio); for half-life / AUC(0-t): non-fasting; for AUC(0-t): read-out: AUC0-6 hr
Method: Method: Compound A or rosiglitazone (10 mg/kg) was orally administered in one portion to a mouse (C57BL/6J: female, 11 weeks old, 3 mice at each measuring point) under non-fasting condition. Its brain tissue and plasma were sequentially sampled for 6 hours after the administration to measure the concentration of the administered-compound. Based on each mean value of the concentrations in its brain tissue and plasma measured at several time points, each elimination half-life (t1/2) and area under the curve (AUC0-6hr) of the administered-compound were calculated.

[2] = tested on: LPS-induced cognitive impairment mouse; test: LPS-induced cognitive impairment model, Y-maze test (alternation behavior); format: in vivo; conditions: LPS i.c.v., percentage of alternation behavior in Y-maze
Method: It is known that lipopolysaccharide (LPS) can experimentally induce an inflammatory condition in brain like in Alzheimer's dementia patients. Thus, LPS-induced model is thought as a good disease model to study cognitive impairment caused by inflammation in Alzheimer's dementia (Neurosci. Res., 61, 113, 2008).
In Example 4-2, 5 μg of LPS (Eschenchia coli 055:B5, SIGMA) was intracerebroventricularly administered to a mouse (Slc:ddY mouse, 4 weeks old, male, Japan SLC, Inc.) in both ventricles, i.e. 2.5 μl of 1 mg/ml LPS was administered to each ventricle. LPS induced cognitive impairment in Y-maze test was appeared 4 days after treatment. (i.e. decrease of alternation behavior). Compound A (10, 30, 100 mg/kg, p.o., n=14-16) or rosiglitazone (1, 3, 10 mg/kg, p.o., n=8) was administered 30 minutes before the LPS administration, and 1, 2, 3 days after the LPS administration, and also 1 hour before the Y-maze test to evaluate the effect for improving cognitive function. 0.5% Methylcellulose solution was used as a solvent of each compound.

scavenger receptor CD36 = test: CD36 transcription level in microglial cells by real-time RT-PCR; format: cell-based; conditions: 0.5 μM, 24 hours, neonatal rat microglial cells
Method: Microglial cells derived from neonatal rats (Sumitomo Bakelite) were cultured for 24 hours in a culture medium containing Compound A (0.5 μM or 5 μM). Then, total RNA was extracted from the cells, and therewith the transcription levels of scavenger receptor CD36 and glyceraldehyde-3-phosphate dehydrogenase (GAPDH) were measured by real-time RT-PCR to calculate the CD36 transcription level as a value relative to the GAPDH transcription level. In order to compare the CD36 transcription levels treated in the different conditions, CD36 transcription level in the control that was cultured for 24 hours with only DMSO which was used as a solvent in the above cultivation of Compound A was measured, and then the relative ratio of each CD36 transcription level of Compound A per that of the control (=1) was calculated.

[3] = Fluid retention as side effect: hematocrit level in high-fat diet obese diabetes mice; conditions: for Hematocrit level: high-fat diet mouse; for Effect on hematocrit level in mice (summary of Example 5): dose not stated
[4] = tested on: rats with scopolamine-induced cognitive impairment; test: Scopolamine-induced cognitive impairment model, passive avoidance test; format: in vivo, rat; conditions: for Step-through latency: scopolamine 0.5 mg/kg i.p., rat, mean ± standard error, n = 11, up to 300 seconds
Text: It is known that scopolamine is a muscarinic acetylcholine receptor antagonist which causes memory impairment in animals and human. Thus, in order to evaluate the efficacy of an anti-Alzheimer's drug, a scopolamine-induced cognitive-impairment model is used in many evaluation tests of cognitive function including a passive avoidance test (Eur. J. Pharmacol., 383, 231, 1999). In Example 6, the effect of Compound A and rosiglitazone on cognitive function was studied using a passive avoidance test using rats with scopolamine-induced cognitive impairment.
Compound A (3, 10, 30 mg/kg) or rosiglitazone (1, 3, 10 mg/kg) was orally administered to a rat 60 minutes before training for the passive avoidance test. Scopolamine (0.5 mg/kg) or saline was intraperitoneally administered 30 minutes before the training. In the training period, the rat was put in a bright compartment and was allowed to explore for 10 seconds. Then, a door between the bright compartment and the dark one was opened, and as the rat went into the dark compartment, the door was closed. Three seconds later, the rat was given electroconvulsive shock (0.5 mA, 3 seconds). The passive avoidance response test was carried out 24 hours after the training. The rat was put in the bright compartment and was monitored to record the time that the rat stayed in the bright compartment (step-through latency) for up to 300 seconds. Dunnett's multiple comparison test (two-sided significance level 5%) was carried out to compare the step-through latency between the scopolamine treatment group and the scopolamine+test medicament treatment group. […] 0.5% Methylcellulose solution was used as a solvent of each compound.

[5] = post-marketing surveillance; cited from earlier work
[6] = mouse, in vivo
[7] = 3 mg/kg oral once a day for 8 weeks
[8] = 10 mg/kg oral once a day for 8 weeks

| Kp [1] | half-life ([1]; brain) | AUC(0-t) ([1]; brain) | half-life ([1]; plasma) | AUC(0-t) ([1]; plasma) | SMILES | Alternation behavior ([2]; 10 mg/kg p.o.) | Hematocrit level [3, 7] | Hematocrit level [3, 8] | Effect on hematocrit level in mice (summary of Example 5) [3] | Step-through latency ([4]; 3 mg/kg p.o.) | further results |
| --- | --- | --- | --- | --- | --- | --- | --- | --- | --- | --- | --- |
| 0.154 | 4.26 h | 1500 ng·h/mL | 4.59 h | 9710 ng·h/mL | Cc1ccc(C(=O)c2cccn2C/C=C/c2ccc(COC(C)(C)C(=O)O)cc2)cc1 [Compound A, 2-Methyl-2-[(4-{(1E)-3-[2-(4-methylbenzoyl)-1H-pyrrol-1-yl]prop-1-en-1-yl}benzyl)oxy]propionic acid] | 66.5 ± 2.8 | 47.7 ± 2.0% | 48.7 ± 1.2% | did not significantly affect | 162.5 ± 28.2 s | CD36 transcription level relative to GAPDH, ratio per DMSO control (=1) (scavenger receptor CD36): 1.44; Hematocrit level ([3]; 30 mg/kg oral once a day for 8 weeks): 48.7 ± 1.5%; Effect on cognitive function (step-through latency) ([4]; single oral administration 3-30 mg/kg, scopolamine rat): improved cognitive function in a dose-dependent manner |
| 0.0451 | 1.06 h | 1820 ng·h/mL | 1.26 h | 40400 ng·h/mL | CN(CCOc1ccc(CC2SC(=O)NC2=O)cc1)c1ccccn1 (stereo not drawn) [Rosiglitazone, rosiglitazone] | 73.4 ± 2.7 | 44.7 ± 1.5 % | 41.1 ± 4.9 % | decreased | 164.5 ± 33.1 s | Alternation behavior ([2]; 1 mg/kg p.o.): 68.4 ± 5.0; Alternation behavior ([2]; 3 mg/kg p.o.): 71.9 ± 4.1; Hematocrit level ([3]; 0.1 mg/kg oral once a day for 8 weeks): 47.4 ± 1.9%; Hematocrit level ([3]; 0.3 mg/kg oral once a day for 8 weeks): 46.6 ± 1.9 %; Hematocrit level ([3]; 1 mg/kg oral once a day for 8 weeks): 45.6 ± 0.9 %; Change of hematocrit level vs solvent ([3]; dose of 0.3 mg/kg or more, oral once a day for 8 weeks): significantly decreased; Step-through latency ([4]; 1 mg/kg p.o.): 144.8 ± 28.3 s; Step-through latency ([4]; 10 mg/kg p.o.): 170.7 ± 30.2 s; Frequency of fluid retention (peripheral edema) [5]: high |
|  |  |  |  |  | CCc1ccc(CCOc2ccc(CC3SC(=O)NC3=O)cc2)nc1 (stereo not drawn) [pioglitazone] |  |  |  |  |  | Effect on hematocrit level in mice (summary of Example 5) [6]: decreased |
